Measured values published in article PMC6430037 (Heliyon, 2019).

Legend:
[1] = target: benzodiazepine binding site (BDZ-bs) of the GABAA receptor; conditions: read-out: Ki for the BDZ-bs of the GABAA receptor; cited from earlier work
rats = conditions: cited from earlier work
hMAO A = conditions: cited from earlier work
hMAO B = conditions: read-out: IC50 hMAO B; cited from earlier work
μ-opioid receptor [2] = target: T1, μ-opioid receptor (Rattus norvegicus, UniProt P33535); conditions: read-out: μ-opioid Ki; [3H]-DAMGO, rat forebrain membranes; cited from earlier work
5-HT1A receptor = target: T2, 5-HT1A receptor (Rattus norvegicus, UniProt P19327); assay: [3H]-8-OH-DPAT radioligand binding assay
T2 sequence (P19327 1-422): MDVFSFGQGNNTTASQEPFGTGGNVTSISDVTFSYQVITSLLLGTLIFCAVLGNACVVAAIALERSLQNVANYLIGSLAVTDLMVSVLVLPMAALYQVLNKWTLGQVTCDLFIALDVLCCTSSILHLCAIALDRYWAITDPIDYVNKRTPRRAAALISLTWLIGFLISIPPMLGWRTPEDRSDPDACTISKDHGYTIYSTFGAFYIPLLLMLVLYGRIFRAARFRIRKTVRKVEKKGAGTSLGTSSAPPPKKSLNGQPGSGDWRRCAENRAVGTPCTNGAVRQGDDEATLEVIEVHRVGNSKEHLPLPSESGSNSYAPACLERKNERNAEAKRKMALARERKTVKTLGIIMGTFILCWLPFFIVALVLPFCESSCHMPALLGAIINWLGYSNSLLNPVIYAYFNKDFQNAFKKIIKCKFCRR

[3] = tested on: BDZ-bs of the GABAA receptor; assay: [3H]-FNZ radioligand binding assay; conditions: [3H]-FNZ displacement, compound at 300 μM, rat cerebral cortex membranes
[4] = PAMPA-BBB permeability assay; assay type: in vitro ADME
Cell viability assay = assay type: cell-based, human; conditions: human, SH-SY5Y cells
SH-SY5Y cells = assay: Cell viability assay; assay type: cell-based, human; conditions: 48 h, SH-SY5Y
mice [5] = assay: Spontaneous locomotor activity; assay type: in vivo; conditions: 30 mg/kg i.p., 5 min counts
mice [6] = assay: Tail suspension test; assay type: in vivo; conditions: 30 min before
μ-opioid receptor [7] = target: T1, μ-opioid receptor; assay: [3H]-DAMGO radioligand binding assay; conditions: read-out: μ-opioid Binding inhibition (%) [300 μM]

T1 sequence (P33535 whole entry): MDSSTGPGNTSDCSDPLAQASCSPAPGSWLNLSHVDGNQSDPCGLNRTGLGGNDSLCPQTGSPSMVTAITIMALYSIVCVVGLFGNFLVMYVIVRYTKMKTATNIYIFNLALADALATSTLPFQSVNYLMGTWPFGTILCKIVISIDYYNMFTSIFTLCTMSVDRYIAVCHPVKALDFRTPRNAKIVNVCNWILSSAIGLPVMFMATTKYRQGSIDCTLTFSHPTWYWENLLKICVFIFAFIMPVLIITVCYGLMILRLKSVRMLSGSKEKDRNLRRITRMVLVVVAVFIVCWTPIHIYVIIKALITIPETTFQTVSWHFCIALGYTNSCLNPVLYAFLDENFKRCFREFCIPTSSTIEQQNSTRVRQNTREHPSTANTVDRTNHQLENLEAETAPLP

| SMILES | Ki [1] | effect in the plus-maze test (rats) | effect on hMAO A (hMAO A) | IC50 (hMAO B) | Ki (μ-opioid receptor [2]) | Ki (5-HT1A receptor) | inhibition at 300 µM (5-HT1A receptor; read-out: 5-HT1A Binding Inhibition (%) [300 μM]) | BDZ-bs Binding inhibition (%) [300 μM] [3] | Papp at 16 h, 50 µM ([4]; PAMPA, pH 7.4) | BBB penetration estimation Prediction ([4]; PAMPA-BBB binning by -logPe) | viability at 48 h, 20 µM (Cell viability assay) | concentration up to which cell viability was not affected (SH-SY5Y cells) | spontaneous locomotor activity vs VEH (mice [5]) | immobility time vs VEH (mice [6]; 10 mg/kg i.p.) | immobility time vs VEH (mice [6]; 30 mg/kg i.p.) | inhibition at 300 µM (μ-opioid receptor [7]) |
| --- | --- | --- | --- | --- | --- | --- | --- | --- | --- | --- | --- | --- | --- | --- | --- | --- |
| O=C(/C=C/c1ccc(O)cc1)c1ccc(O)cc1O [isoliquiritigenin, 2′,4′,4-trihydroxychalcone] | 0.45 µM | anxiolytic-like effect | – | – | – | – | – | – | – | – | – | – | – | – | – | – |
| O=C(/C=C/c1ccccc1)c1ccccc1 [Compound 1, Chalcone] | – | – | no effect | 1.41 ± 0.07 µM | 28.2 ± 9.9 µM | 20.8 ± 1.5 µM | 60 to 90% | ++++ (inhibition >90% (++++)) | 26.3 ×10⁻⁶ cm/s | CNS+ (CNS+, -logPe < 5.6, high permeability) | 95.9% | 75 µM | significant increase | significantly reduced | significantly reduced | 60 to 90% |
